“Also recorded” adds a separate entry of the source. Read-outs that look alike come from different tables or passages of the source.
Columns and labels:
poly (dAdT)2 = experiment: Thermal denaturation of p(dAdT)2; type: binding; details: r = [compound]/[polynucleotide] = 0.3, pH 7.0; error ±0.5 °C
Method: (§1) These solutions were used for measurements in an aqueous buffer (pH = 7, sodium cacodylate buffer, I = 0.05 mol dm^−3). Polynucleotides were purchased as noted: poly (dAdT)2 and calf thymus ctDNA (Sigma-Aldrich). Polynucleotides were dissolved in Na-cacodylate buffer, I = 0.05 mol dm^−3, pH = 7. The calf thymus ctDNA was additionally sonicated and filtered through a […]. Polynucleotide concentration was determined spectroscopically[50]^,[51] as the concentration of phosphates.
(§2) The UV/Vis spectra were recorded on a Varian Cary 100 Bio spectrophotometer using 1 cm path quartz cuvettes. Calibration experiments were performed at 25 °C and pH = 7 (I = 0.05 mol dm^−3, sodium cacodylate buffer). Absorption maxima and corresponding molar extinction coefficients (ε) of benzothiazole derivatives are given in Table S1 (Supplementary material). Thermal melting curves for DNA and their complexes with studied compounds were determined as previously described by following the absorption change at 260 nm as a function of temperature. The absorbance of the ligands was subtracted from every curve and the absorbance scale was normalised. Tm values are the midpoints of the transition curves determined from the maximum of the first derivative and checked graphically by the tangent method. The ΔTm values were calculated by subtracting Tm of the free nucleic acid from Tm of the complex. Every ΔTm value reported here was the average of at least two measurements. The error in ΔTm is ±0.5 °C.

ctDNA [1] = experiment: CD titration of ctDNA; type: binding, calf; details: for induced CD (ICD) signal with ctDNA: CD titration, pH 7.0, λ > 300 nm; for binding mode to ctDNA: concluded from ICD, ΔTm and binding constants
Method: as §1
CD spectra were recorded on a JASCO J815 spectrophotometer in 1 cm path quartz cuvettes. CD parameters: range = 500–220 nm, data pitch = 2, standard sensitivity, scanning speed = 200 nm/min, accumulation = 3–5. Titrations were performed at 25 °C and pH = 7 (I = 0.05 mol dm^−3, sodium cacodylate buffer). CD experiments were done by adding portions of the compound stock solution into the polynucleotide solution.

[2] = system: HFF-1 (human foreskin fibroblasts); experiment: Proliferation assay (MTT, 72 h) on normal fibroblasts HFF-1; type: cell-based; details: HFF-1 normal fibroblasts
Method: (§3) Human cell lines SW620 (colorectal adenocarcinoma, metastatic), MCF-7 (human breast adenocarcinoma), CFPAC-1 (pancreatic adenocarcinoma), HeLa (cervical carcinoma), and HFF-1 (human foreskin fibroblasts) were obtained from the American Type Culture Collection (ATCC). Cells were cultured in a humidified atmosphere at 37 °C with 5% CO2. As a growth medium, Dulbecco’s modified Eagle medium (DMEM) was used with the addition of foetal bovine serum (10%), L-glutamine (2 mM), and antibiotics: streptomycin ([…]) and penicillin (100 U/ml).
(§4) Cells were seeded onto 96-well microtiter plates at a seeding density of 3000 cells/well for carcinoma cell lines, and 5000 cells/well for normal human fibroblasts. The next day, cells were treated with test agents at five different concentrations (0.01–100 µM) and further incubated for 72 h. […] 5-Fluorouracil (5-FU, 0.384 M fluorouracilum, Pliva 500 mg/10 ml) dissolved in physiological solution was used as a positive control. Following 72 h incubation, the MTT assay was performed and measured absorbances were transformed into a percentage of cell growth as described previously. Results were obtained from three independent experiments. IC50 values were calculated using linear regression analysis (FORECAST option taking into account the concentration range of two experimental points above and below IC50).

calf thymus ctDNA = experiment: Fluorimetric titration with ctDNA; type: binding; details: for I/I0: fluorescence intensity of complex / starting intensity, ctDNA, pH 7.0; for LogKs: fluorescence titration with ctDNA, Scatchard, fixed n = 0.6, pH 7.0, sodium cacodylate I = 0.05 mol dm−3
Method: The calf thymus ctDNA was additionally sonicated and filtered through a […]. Polynucleotide concentration was determined spectroscopically[50]^,[51] as the concentration of phosphates. Fluorescence spectra were recorded on a Varian Cary Eclipse spectrophotometer at 25 °C using appropriate 1 cm path quartz cuvettes. […] In fluorimetric experiments, an excitation wavelength of λexc ≥300 nm was used to avoid the inner filter effect caused due to increasing absorbance of the polynucleotide. Emissions were determined in the range λem = 350–650 nm. Values for Ks were obtained by processing titration data using the Scatchard equation[52].

[3] = system: CFPAC-1 (pancreatic adenocarcinoma); experiment: Proliferation assay (MTT, 72 h) on CFPAC-1; type: cell-based; details: Homo sapiens, CFPAC-1, 72 h
Method: as §3, §4

[4] = system: HeLa (cervical carcinoma); experiment: Proliferation assay (MTT, 72 h) on HeLa; type: cell-based; details: Homo sapiens
Method: as §3, §4

[5] = system: SW620 (colorectal adenocarcinoma, metastatic); experiment: Proliferation assay (MTT, 72 h) on SW620; type: cell-based; details: Homo sapiens, SW-620, SW620, 72 h
Method: as §3, §4

[6] = system: L6 cells (a rat myoblast line); experiment: L6 cell proliferation (cytotoxicity, resazurin); type: cell-based; details: 144 h; rat myoblast L6, 6 days
[7] = system: Bloodstream form T. b. brucei (strain 221); experiment: Antitrypanosomal screening (resazurin); type: cell-based; details: Trypanosoma brucei; for IC90: concentration that inhibited growth by 90%, mean ± SEM; for IC50: mean of triplicate ± SEM
Method: Resazurin (20 μl at 0.125 mg ml^−1) was added after 48 h, the plates were incubated for a further 16 h, and then read in a Spectramax plate reader, and data analysed using GraphPad Prism. Each drug was tested in triplicate.

ctDNA [8] = experiment: Thermal denaturation of ctDNA; type: binding, calf; details: r = [compound]/[polynucleotide] = 0.3, pH 7.0; error ±0.5 °C
Method: as §1, §2

[9] = system: MCF-7 (human breast adenocarcinoma); experiment: Proliferation assay (MTT, 72 h) on MCF-7; type: cell-based; details: MCF7, MCF-7, 72 h
Method: as §3, §4

[10] = system: Bloodstream form T. b. brucei (strain 221); details: read-out: T. brucei IC50; reference drug; ref Wilkinson et al.[54]; cited from earlier work
[11] = system: WI-38 fibroblast cell line; experiment: Growth inhibition of WI-38 fibroblasts (control substance); type: cell-based; details: Homo sapiens; WI-38 fibroblast cell line (footnote c)

Structure (SMILES)	ΔTm p(dAdT)2 (poly (dAdT)2)	induced CD (ICD) signal with ctDNA (ctDNA [1])	binding mode to ctDNA (ctDNA [1])	IC50 [2]	I/I0 (calf thymus ctDNA)	LogKs (calf thymus ctDNA)	IC50 [3]	IC50 [4]	IC50 [5]	IC50 [6]	IC90 [7]	IC50 [7]	ΔTm ctDNA (ctDNA [8])	melting point	IC50 [9]	IC50 [10]	IC50 [11]
CS(=O)(=O)O.Clc1ccc(-n2cc(-c3nc4ccc(C5=NCCCN5)cc4s3)nn2)cc1 [15b, 6-(3,4,5,6-Tetrahydropyrimidin-1-ium-2-yl)-2-[1-(4-chlorophenyl)-1H-1,2,3-triazole-4-yl]benzothiazole methanesulfonate]	5.4 °C	positive induced CD spectra	minor groove binding mode	740 ± 50 nM	0.35	5.4	710 ± 170 nM	2270 ± 80 nM	890 ± 310 nM	7690 ± 160 nM	3840 ± 650 nM	1120 ± 230 nM	0 °C	288 to 293 °C	2100 ± 1090 nM	–	–
CS(=O)(=O)O.c1ccc(-n2cc(-c3nc4ccc(C5=NCCN5)cc4s3)nn2)cc1 [14a, 6-(4,5-Dihydro-1H-imidazol-3-ium-2-yl)-2-(1-phenyl-1H-1,2,3-triazole-4-yl)benzothiazole methanesulfonate]	2.6 °C	–	–	120 ± 10 nM	0.54	5.6	450 ± 190 nM	670 ± 60 nM	250 ± 160 nM	< 2000 nM	530 ± 30 nM	400 ± 20 nM	0.7 °C	–	520 ± 260 nM	–	–
CC1CS(=O)(=O)CCN1/N=C/c1ccc([N+](=O)[O-])o1 (centres unmarked) [Nifurtimox]	–	–	–	–	–	–	–	–	–	–	–	–	–	–	–	2000 ± 240 nM	–
O=c1[nH]cc(F)c(=O)[nH]1 [5-FU, 5-Fluorouracil, reference compound]	–	–	–	–	–	–	6450 ± 660 nM	47500 ± 1930 nM	6400 ± 220 nM	–	–	–	–	–	90 ± 10 nM	–	940 nM
COc1ccc(-n2cc(-c3nc4ccc(C5=NCCN5)cc4s3)nn2)cc1.CS(=O)(=O)O [14c, 6-(4,5-Dihydro-1H-imidazol-3-ium-2-yl)-2-[1-(4-methoxyphenyl)-1H-1,2,3-triazole-4-yl]benzothiazole methanesulfonate]	4.5 °C	–	–	180 ± 10 nM	–	–	480 ± 30 nM	380 ± 100 nM	360 ± 90 nM	< 2000 nM	490 ± 10 nM	310 ± 20 nM	0 °C	> 300 °C	540 ± 10 nM	–	–
CS(=O)(=O)O.Clc1ccc(-n2cc(-c3nc4ccc(C5=NCCN5)cc4s3)nn2)cc1 [14b, 6-(4,5-Dihydro-1H-imidazol-3-ium-2-yl)-2-[1-(4-chlorophenyl)-1H-1,2,3-triazole-4-yl]benzothiazole methanesulfonate]	3.6 °C	–	–	360 ± 180 nM	0.45	5.0	2420 ± 60 nM	480 ± 10 nM	350 ± 130 nM	< 2000 nM	480 ± 20 nM	320 ± 60 nM	2.2 °C	> 300 °C	1770 ± 180 nM	–	–
CS(=O)(=O)O.Clc1ccc(-n2cc(COc3nc4ccc(C5=NCCN5)cc4s3)nn2)cc1 [11b, 6-(4,5-Dihydro-1H-imidazol-3-ium-2-yl)-2-{[1-(4-chlorophenyl)-1H-1,2,3-triazol-4-yl]methoxy}benzothiazole methanesulfonate]	1.1 °C	small negative ICD signal	intercalation	170 ± 90 nM	0.21	6.6	3090 ± 190 nM	2610 ± 420 nM	2840 ± 190 nM	< 2000 nM	120 ± 30 nM	90 ± 20 nM	1.2 °C	263 to 266 °C	3120 ± 360 nM	–	–
N=C(N)c1ccc2nc(-c3ccc(OCc4cn(-c5ccc(Cl)cc5)nn4)cc3)sc2c1 [10b]	2.3 °C	small negative ICD signal	intercalation	170 ± 130 nM	0.12	6.6	–	1240 ± 600 nM	3050 ± 820 nM	1460 ± 450 nM	810 ± 40 nM	540 ± 130 nM	2.7 °C	–	870 ± 180 nM	–	–
CS(=O)(=O)O.c1ccc(-n2cc(COc3nc4ccc(C5=NCCN5)cc4s3)nn2)cc1 [11a, 6-(4,5-Dihydro-1H-imidazol-3-ium-2-yl)-2-[(1-phenyl-1H-1,2,3-triazol-4-yl)methoxy] benzothiazole methanesulfonate]	4.1 °C	bisignate signal with maxima at 317 and 360 nm	dimer within the minor groove; also recorded: minor groove binding	260 ± 20 nM	0.18	6.8	450 ± 10 nM	570 ± 190 nM	460 ± 30 nM	< 200 nM	280 ± 30 nM	230 ± 20 nM	2.1 °C	270 to 274 °C	490 ± 10 nM	–	–
CS(=O)(=O)O.Clc1ccc(-n2cc(COc3nc4ccc(C5=NCCCN5)cc4s3)nn2)cc1 [12b, 6-(3,4,5,6-Tetrahydropyrimidin-1-ium-2-yl)-2-[(1-(4-Chlorophenyl)-1H-1,2,3-triazol-4-yl]methoxy)benzothiazole methanesulfonate]	–	positive induced CD spectra	minor groove binding mode	240 ± 90 nM	0.31	7.0	3550 ± 810 nM	2810 ± 580 nM	660 ± 210 nM	2320 ± 180 nM	1190 ± 20 nM	910 ± 80 nM	–	220 to 224 °C	3910 ± 1190 nM	–	–

From publication PMC8409973, “Synthesis, antiproliferative and antitrypanosomal activities, and DNA binding of novel 6-amidino-2-arylbenzothiazoles” (Journal of Enzyme Inhibition and Medicinal Chemistry, 2021)
